Series [1] is described as follows: Aqueous solubility of the compound in phosphate buffered saline at pH 7 by shake-flask method. Type of series: physicochemical.
The target of series [2] is T1, Cannabinoid receptor 1 (Homo sapiens, UniProt P21554).
Description: Agonist activity at human cannabinoid CB1 receptor expressed in CHO cells co-expressing AP-1 response element after 5 hrs by luciferase reporter gene assay
Series [3] can be described thus: Aqueous solubility of the compound in citrate buffer at pH 5 by shake-flask method. Type of series: physicochemical.
For another series, the target named is Cannabinoid receptor 2 (Homo sapiens, UniProt P34972). As to the kind of experiment: Displacement of [3H]-CP55940 from human cannabinoid CB2 receptor expressed in Sf9 insect cells after 70 mins by scintillation counting.
The test system of series [4] is Mus musculus. As to the kind of experiment: Antinociceptive activity in iv dosed ICR mouse assessed as time taken for tail flick latency to return to within mean plus two standard deviations of baseline value following twice ED50 dose by tail flick latency test. It counts as functional.
Series [5] deals with T1, Cannabinoid receptor 1. As to the kind of experiment: biochemical.
For series [6], the species on record is Homo sapiens. Kind of series: Selectivity ratio of Ki for human ERG to Ki for human cannabinoid CB1 receptor.
For series [7], the system named is Mus musculus. As to the kind of experiment: Antinociceptive activity in ICR mouse assessed as increase of tail flick latency at 0.4 umol/kg, iv after 20 to 60 mins by tail flick latency test relative to control. It counts as functional.
For series [8], the system named is Mus musculus. As to the kind of experiment: Antinociceptive activity in ICR mouse assessed as inhibition of time spent licking formalin injected paw at 0.03 umol/kg, iv after 5 to 10 mins relative to control. It counts as functional.
The test system of series [9] is Mus musculus. Kind of series: Antinociceptive activity in ICR mouse assessed as inhibition of time spent licking formalin injected paw at 0.1 umol/kg, iv after 20 to 30 mins relative to control. It counts as functional.
Series [10] can be described thus: Volume of distribution at steady state in ICR mouse plasma at 3 umol/kg, iv. It counts as ADME, cell-free. The conditions noted are these: read-out: Vdss.
The nature of series [11]: Cmax in ICR mouse brain at 3 umol/kg, iv. It counts as ADME, tissue-based. Further details: dose 3 umol/kg, route intravenous.
The nature of series [12]: Clearance in ICR mouse plasma at 3 umol/kg, iv. Type of series: ADME, cell-free.
The subject of series [13] is Mus musculus. As to the kind of experiment: Antinociceptive activity in ICR mouse assessed as increase of tail flick latency at 1 umol/kg, iv after 20 to 60 mins by tail flick latency test relative to control. It counts as functional.
Series [14] in a line: Intrinsic clearance in mouse liver microsomes. Type of series: ADME. Particulars: read-out: CLH.
The nature of series [15]: Aqueous solubility of the compound in phosphate buffered saline at pH 6.9 by shake-flask method. Type of series: physicochemical.
A short description of series [16]: Tmax in ICR mouse brain at 3 umol/kg, iv. It counts as ADME, tissue-based.
The test system of series [17] is Mus musculus. As to the kind of experiment: Antinociceptive activity in ICR mouse assessed as inhibition of time spent licking formalin injected paw at 0.3 umol/kg, iv after 20 to 30 mins relative to control. Type of series: functional.
Another series has as its system Brain. As to the kind of experiment: AUC (0 to 1 hr) in ICR mouse brain at 3 umol/kg, iv. Type of series: ADME, tissue-based. Details: time < 1 hr, dose 3 umol/kg, route intravenous. The conditions noted are these: in vivo.
The species named for series [18] is Homo sapiens. As to the kind of experiment: Selectivity ratio of Ki for human ERG to Ki for human cannabinoid CB2 receptor.
For series [19], the system named is Mus musculus. As to the kind of experiment: Antinociceptive activity in ICR mouse assessed as inhibition of time spent licking formalin injected paw at 0.3 umol/kg, iv after 5 to 10 mins relative to control. It counts as functional.
Series [20] is described as follows: Ratio of Cmax in brain to plasma in ICR mouse at 3 umol/kg, iv. Particulars: brain and plasma, read-out: BPR. Type of series: ADME, cell-free.
The test system of series [21] is Mus musculus. Kind of series: Antinociceptive activity in ICR mouse assessed as inhibition of time spent licking formalin injected paw at 0.1 umol/kg, iv after 5 to 10 mins relative to control. Type of series: functional.
Series [22] is described as follows: Cmax in ICR mouse plasma at 3 umol/kg, iv. Details: dose 3 umol/kg, route intravenous. It counts as ADME, cell-free.
The test system of series [23] is Mus musculus. Kind of series: Antinociceptive activity in iv dosed ICR mouse assessed as inhibition of time spent licking formalin injected paw after 5 to 30 mins. It counts as functional, organism-based.
Series [24] in a line: Intrinsic clearance in human liver microsomes. It counts as ADME. The conditions noted are these: read-out: CLH.
The subject of series [25] is Mus musculus. Kind of series: Antinociceptive activity in ICR mouse assessed as increase of tail flick latency at 0.2 umol/kg, iv after 20 to 60 mins by tail flick latency test relative to control. Type of series: functional.
In series [26] the test system is Mus musculus. As to the kind of experiment: Antinociceptive activity in ICR mouse assessed as inhibition of time spent licking formalin injected paw at 0.01 umol/kg, iv after 5 to 10 mins relative to control. Type of series: functional.
Series [27] in a line: Aqueous solubility of the compound in citrate buffer at pH 4.9 by shake-flask method. Type of series: physicochemical.
Series [28] deals with Mus musculus. As to the kind of experiment: Antinociceptive activity in ICR mouse assessed as inhibition of time spent licking formalin injected paw at 0.03 umol/kg, iv after 20 to 30 mins relative to control. Type of series: functional.
Series [29] has as its system Mus musculus. As to the kind of experiment: Antinociceptive activity in ICR mouse assessed as inhibition of time spent licking formalin injected paw at 0.01 umol/kg, iv after 20 to 30 mins relative to control. Type of series: functional.
For series [30], the system named is Mus musculus. Kind of series: Antinociceptive activity in iv dosed ICR mouse assessed as increase of tail flick latency after 20 to 60 mins by tail flick latency test. It counts as functional, organism-based.
The nature of series [31]: Elimination half life in ICR mouse plasma at 3 umol/kg, iv. Particulars: read-out: beta t1/2 (converted). Type of series: ADME, cell-free.
Series [32] can be described thus: Tmax in ICR mouse plasma at 3 umol/kg, iv. Type of series: ADME, cell-free.
Series [33] is described as follows: AUC in ICR mouse plasma at 3 umol/kg, iv. Type of series: ADME, cell-free.
Series [34] in a line: Aqueous solubility of the compound in phosphate buffered saline at pH 7.1 by shake-flask method. Type of series: physicochemical.

T1 sequence (P21554 whole entry): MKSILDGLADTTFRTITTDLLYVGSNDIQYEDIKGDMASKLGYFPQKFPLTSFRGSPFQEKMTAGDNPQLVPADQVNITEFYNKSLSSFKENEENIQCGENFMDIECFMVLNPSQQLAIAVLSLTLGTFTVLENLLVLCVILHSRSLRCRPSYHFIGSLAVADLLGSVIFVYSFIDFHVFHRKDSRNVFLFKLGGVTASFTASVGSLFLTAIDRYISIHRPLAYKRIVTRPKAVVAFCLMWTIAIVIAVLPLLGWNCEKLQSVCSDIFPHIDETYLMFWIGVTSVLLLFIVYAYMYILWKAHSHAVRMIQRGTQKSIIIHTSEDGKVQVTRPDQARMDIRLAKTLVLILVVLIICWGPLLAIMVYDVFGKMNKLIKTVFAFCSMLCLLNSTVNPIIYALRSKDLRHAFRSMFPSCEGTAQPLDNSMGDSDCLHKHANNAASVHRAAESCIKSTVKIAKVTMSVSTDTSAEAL
Sequence of Cannabinoid receptor 2 (P34972 whole entry): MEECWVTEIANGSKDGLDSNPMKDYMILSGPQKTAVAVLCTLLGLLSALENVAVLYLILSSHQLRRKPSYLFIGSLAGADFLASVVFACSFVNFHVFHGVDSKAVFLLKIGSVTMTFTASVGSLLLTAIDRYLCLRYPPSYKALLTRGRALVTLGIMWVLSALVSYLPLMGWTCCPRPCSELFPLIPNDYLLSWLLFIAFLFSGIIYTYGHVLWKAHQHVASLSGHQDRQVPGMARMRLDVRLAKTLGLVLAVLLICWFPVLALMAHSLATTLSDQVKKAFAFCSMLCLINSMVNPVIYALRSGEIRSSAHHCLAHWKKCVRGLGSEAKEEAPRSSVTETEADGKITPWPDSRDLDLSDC

In the case of `COc1cccc2c(C(=O)N3CCN(C)C(C)(C)C3)cn(CC3CCCCC3)c12.Cl`, the solubility (thermodynamic) in series [1] came to 129 µg/mL; in [3] it was 2160 µg/mL. At Cannabinoid receptor 1 [2], this compound gave an EC50 of 158 nM.
The compound `O=C(Cc1ccccc1)N/N=C1\C(=O)N(CC2CCCCC2)c2cc(OCCN3CCOCC3)ccc21` showed an EC50 on Cannabinoid receptor 1 [2] of 63.1 nM.
Regarding `CCN1CCN(C(=O)c2cn(CC3CCCCC3)c3c(C)cccc23)CC1`, a half-maximal effect at Cannabinoid receptor 1 [2] (EC50) was put at 200 nM.
On Cannabinoid receptor 1 [2], `CCN1CCN(C(=O)c2cn(CC3CCCCC3)c3cc(OC)ccc23)CC1` showed an EC50 of 158 nM.
Turning to `CCN1CCN(C(=O)c2cn(CC3CCCCC3)c3ccccc23)CC1`, the EC50 at Cannabinoid receptor 1 [2] is 316 nM.
On to `CCN1[C@H](C)CN(C(=O)c2cn(CC3CCCCC3)c3c(OC)cccc23)C[C@@H]1C.Cl`, for which the thermodynamic solubility was 9 µg/mL in [1] and > 4000 µg/mL in series [3].
Compound `O=C(NCc1ccccc1)c1cn(CC2CCCCC2)c2ccccc12` showed an EC50 on Cannabinoid receptor 1 [2] of 63.1 nM.
On Cannabinoid receptor 1 [2], `Cc1ccc2c(C(=O)N3CCN(C)CC3)cn(CC3CCCCC3)c2c1` had an EC50 of 316 nM.
On to `CN1CCN(C(=O)c2cn(CC3CCCCC3)c3ccccc23)CC1`, for which, at Cannabinoid receptor 1 [2], the 50% effective concentration (EC50) is 501 nM.
Same read-out and setting: next, `CCN1CCN(C(=O)c2cn(CC3CCCCCC3)c3c(OC)cccc23)CC1`: 794 nM.
`CCN1CCN(C(=O)c2cn(CC3CCCCC3)c3ccc(F)cc23)CC1` had an EC50 on Cannabinoid receptor 1 [2] of 501 nM.
As to `COc1cccc2c(C(=O)N3CCN(C)[C@@H](C)C3)cn(CC3CCCCC3)c12.Cl`, the results for the Ki on Cannabinoid receptor 2 and at Cannabinoid receptor 1 [5] were 1.58 nM and 1.26 nM, respectively. Also, the Time in the series on Mus musculus [4] is on record as 90 min. In addition, the Ratio Ki in the series filed under Homo sapiens [6] and in the series filed under Homo sapiens [18] was > 100 in each case. Further, the MPE was determined as 50.1% in the series on Mus musculus [7], 100% in the series on Mus musculus [13] and 18.3% in the series on Mus musculus [25]. Further, the inhibition in vivo at 0.03 µmol/kg in the series with Mus musculus [8] is 66%; in the series with Mus musculus [28], 79.7%. The values for the inhibition in vivo at 0.1 µmol/kg with Mus musculus [9] and in the series with Mus musculus [21] were 93.4% and 99%, respectively. The Vd in series [10] turned out to be 2.1 L/kg. Besides, the Cmax is 2460 ng/g in [11] and 620 ng/mL in series [22]. The clearance in series [12] was determined as 77.3 mL/min/kg. In addition, the microsomal CLint in series [14] and in series [24] was > 270 µL/min/mg throughout. Also, the solubility (thermodynamic) in series [15] amounted to 129 µg/mL; in [27] it was 2810 µg/mL. Besides, the Tmax in [16] is 10.2 min; in [32] it was 3 min. Further, the inhibition in vivo at 0.3 µmol/kg in the series with Mus musculus [17] and with Mus musculus [19] was 100% each time. Besides, the AUC with Brain stood at 804 ng·h/g; in series [33] it was 248 ng·h/mL. Also, the Kp in series [20] was determined as 4. Moreover, the inhibition entry with Mus musculus [23] is “Dose-dependent effect”. The inhibition in vivo at 0.01 µmol/kg came to 25.7% in the series on Mus musculus [26] and 49.2% in the series on Mus musculus [29]. In the series on Mus musculus [30], the Activity result is “Dose-dependent effect”. Also, in series [31], the half-life was 24.6 min.
With `CCN1CCN(C(=O)c2cn(CC3CCCCC3)c3ccc(Cl)cc23)CC1`, the EC50 on Cannabinoid receptor 1 [2] was 1260 nM.
As for `CCN1CCN(C(=O)c2cn(CC3CCCCC3)c3c(Cl)cccc23)CC1`, a half-maximal response on Cannabinoid receptor 1 [2] (EC50) required 501 nM.
As for `CCN1CCN(C(=O)c2cn(CC3CCCCC3)c3c(OC)cccc23)C[C@@H]1C.Cl`, the figures for the solubility (thermodynamic) in series [34] and in series [3] were 37 µg/mL and > 4000 µg/mL, respectively. Besides, on Cannabinoid receptor 1 [2], the midpoint of the response, the EC50, lay at 39.8 nM.
Regarding `CCN1CCN(C(=O)c2cn(Cc3ccccc3)c3c(OC)cccc23)CC1`, on Cannabinoid receptor 1 [2], the EC50 is > 3160 nM.
For the compound `CN(C)CCNC(=O)c1cn(CC2CCCCC2)c2ccccc12`, the EC50 at Cannabinoid receptor 1 [2] was > 3160 nM.

Values taken from ChEMBL document CHEMBL3390831, “Design, synthesis, and structureactivity relationships of indole-3-carboxamides as novel water soluble cannabinoid CB1 receptor agonists” (Medchemcomm, 2010).
